This is an account of results in ChEMBL document CHEMBL1201862, “PubChem BioAssay data set” (2004).

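Five compound concentrations were applied to cells in 96-well plates for 48 hours; endpoints were derived by simple linear interpolation of the resulting dose-response curve. The concentration for 50% growth inhibition is given as GI50.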 Calls of active or inactive are those of the source. Cut-off read from the data, not from the text of the source: active = GI50 up to about 1.1 µM and inactive = higher.

Among the test systems are SK-MEL-5; SK-OV-3; TK-10; SF-295; SNB-75; NCI-H23; SK-MEL-2; UACC-257; ACHN; Malme-3M; OVCAR-3; NCI-H460; OVCAR-4; 786-0; RPMI-8226; EKVX; MDA-MB-231; HOP-62; HOP-92.
What all share (assay): NCI anticancer screen, dose series, 48 h

Consider `O=C(NN1C(=O)C(Cl)C1c1ccc(O)cc1)c1ccccc1O` (stereo unspecified), for which the GI50 in the assay with SK-MEL-5 is 14.6 µM (inactive); in the assay on SK-OV-3, 25.8 µM (inactive); with TK-10 it was 24.7 µM (inactive); in the assay on SF-295, 16.6 µM (inactive); in the assay with SNB-75 it was 34.8 µM (inactive); in the assay with NCI-H23, 22.2 µM (inactive). Also, the GI50 in the assay with SK-MEL-2 was 19.9 µM (inactive); in the assay on UACC-257 it was 20.7 µM (inactive); in the assay on ACHN, 19.1 µM (inactive); in the assay on Malme-3M, 18.6 µM (inactive); in the assay on OVCAR-3, 16.7 µM (inactive); in the assay with NCI-H460, 17.5 µM (inactive). Further, the GI50 in the assay with OVCAR-4 is 23.7 µM (inactive); in the assay with 786-0 it was 18.7 µM (inactive).
In the case of `COc1c(-c2cccs2)oc2c(CC(=O)O)cccc2c1=O`, the GI50 is > 100 µM (inactive) in the assay on SK-MEL-5; 0.23 µM (active) in the assay on RPMI-8226; > 100 µM (inactive) with EKVX; > 100 µM (inactive) in the assay on SK-OV-3; > 100 µM (inactive) with MDA-MB-231; > 100 µM (inactive) with TK-10. In addition, the GI50 with SF-295 is > 100 µM (inactive); in the assay with NCI-H23, 53.3 µM (inactive); in the assay with SK-MEL-2, > 100 µM (inactive); in the assay on UACC-257, > 100 µM (inactive); with HOP-62, 1.2 µM (inactive); in the assay on Malme-3M it was > 100 µM (inactive). Further, the GI50 with OVCAR-3 and in the assay with 786-0 was > 100 µM (inactive) each time.
As to `C/C(CC1SCCCS1)=C(/C)CC1SCCCS1`, the GI50 in the assay with SK-MEL-5, in the assay with RPMI-8226, in the assay on EKVX, in the assay with MDA-MB-231, with TK-10 and in the assay on SF-295 was > 100 µM (inactive) in each case. Moreover, the GI50 in the assay on SNB-75, with NCI-H23, in the assay with SK-MEL-2, in the assay with ACHN, in the assay on HOP-62 and in the assay with Malme-3M was > 100 µM (inactive) each time. For the same compound, the GI50 with OVCAR-3, with NCI-H460, in the assay with OVCAR-4 and in the assay with 786-0 was > 100 µM (inactive) each time.
Turning to `COc1cc(S(=O)(=O)Nc2ccc(-c3csc(/N=C\c4cccc(Oc5ccccc5)c4)n3)cc2)ccc1Cl`, the GI50 in the assay on SK-MEL-5 is 27.9 µM (inactive); in the assay with RPMI-8226, 21.6 µM (inactive); in the assay with EKVX, 8.39 µM (inactive); in the assay with SF-295, 47.1 µM (inactive); with SNB-75, 30.8 µM (inactive); in the assay with NCI-H23, 45.9 µM (inactive). The GI50 was 40.5 µM (inactive) with SK-MEL-2; 20.1 µM (inactive) with HOP-92; 15.5 µM (inactive) in the assay on ACHN; 44.9 µM (inactive) in the assay on HOP-62; 47.8 µM (inactive) with Malme-3M; 31.9 µM (inactive) in the assay on OVCAR-3. In addition, the GI50 in the assay with OVCAR-4 was 41.8 µM (inactive); in the assay with 786-0, 5.58 µM (inactive).
As for `CC(=O)OCc1cccc(O)c1C(=O)CCC=C(C)C`, the GI50 in the assay on SK-MEL-5 was > 100 µM (inactive); in the assay on RPMI-8226, > 100 µM (inactive); with EKVX, > 100 µM (inactive); with SK-OV-3, > 100 µM (inactive); with TK-10 it was > 100 µM (inactive); with SF-295, 32.7 µM (inactive). Also, the GI50 in the assay with NCI-H23, with SK-MEL-2, with HOP-92, in the assay with UACC-257, in the assay on ACHN and with HOP-62 was > 100 µM (inactive) throughout. In addition, the GI50 with Malme-3M, with OVCAR-3, with NCI-H460, in the assay with OVCAR-4 and in the assay on 786-0 was > 100 µM (inactive) each time.
Regarding `COc1cc2c(c(O)c1O)C(=O)C1CCC(=O)N1C2c1cccc2ccccc12` (stereo unspecified), the GI50 with RPMI-8226, in the assay with EKVX, in the assay on SK-OV-3, in the assay on SF-295, in the assay with SNB-75 and in the assay on NCI-H23 was > 50 µM (inactive) throughout. Moreover, the GI50 with SK-MEL-2, with HOP-92, in the assay on UACC-257, with ACHN, in the assay with HOP-62 and in the assay on OVCAR-3 was > 50 µM (inactive) each time. For the same compound, the GI50 in the assay on NCI-H460, with OVCAR-4 and in the assay on 786-0 was > 50 µM (inactive) in each case.
As for `Nc1nc(Cl)cc(OCC2(CO)CC=CC2)n1`, the GI50 in the assay on SK-MEL-5 was > 100 µM (inactive); in the assay with RPMI-8226, > 100 µM (inactive); in the assay on EKVX, > 100 µM (inactive); in the assay with TK-10, > 100 µM (inactive); with SF-295, > 100 µM (inactive); with SNB-75 it was 27.1 µM (inactive). Further, the GI50 with NCI-H23, in the assay with HOP-92, with UACC-257, in the assay on ACHN, with HOP-62 and in the assay on Malme-3M was > 100 µM (inactive) in each case. For the same compound, the GI50 with OVCAR-3, with NCI-H460, in the assay on OVCAR-4 and in the assay on 786-0 was > 100 µM (inactive) each time.
With `CCOC(=O)C1C=C1C(C)(C)O` (stereo unspecified), the GI50 in the assay on SK-MEL-5, in the assay with RPMI-8226, in the assay with EKVX, with SK-OV-3, in the assay on TK-10 and in the assay with SF-295 was > 10 µM (inactive) each time. The GI50 with SNB-75, with NCI-H23, in the assay on SK-MEL-2, with HOP-92, in the assay with UACC-257 and with ACHN was > 10 µM (inactive) in each case. The GI50 with HOP-62, in the assay with Malme-3M, with OVCAR-3, with NCI-H460 and in the assay on 786-0 was > 10 µM (inactive) throughout.
On to `C#C[C@@]1(O)CCCC2=CC(=O)C[C@]21C`, for which the GI50 with SK-MEL-5, in the assay with RPMI-8226, in the assay with EKVX, with SK-OV-3, with TK-10 and with SF-295 was > 100 µM (inactive) throughout. Also, the GI50 in the assay on NCI-H23, in the assay with SK-MEL-2, in the assay with HOP-92, with UACC-257, with ACHN and with Malme-3M was > 100 µM (inactive) each time. Also, the GI50 with OVCAR-3, in the assay on NCI-H460 and with 786-0 was > 100 µM (inactive) in each case.
Take `CC(=O)N[C@@H](Cc1ccc(O)cn1)C(=O)NCc1cccc(Cl)c1`: the GI50 in the assay with SK-MEL-5, in the assay with RPMI-8226, in the assay on EKVX, in the assay with SK-OV-3, in the assay with TK-10 and with SF-295 was > 100 µM (inactive) throughout. Moreover, the GI50 in the assay on NCI-H23, with SK-MEL-2, in the assay with UACC-257, in the assay with ACHN, with HOP-62 and in the assay on OVCAR-3 was > 100 µM (inactive) in each case. The GI50 in the assay on NCI-H460, in the assay with OVCAR-4 and in the assay with 786-0 was > 100 µM (inactive) in each case.
In the case of `COc1cc(OC)cc(-c2nc3cc(F)ccc3s2)c1`, the GI50 is > 100 µM (inactive) with SK-MEL-5; > 100 µM (inactive) in the assay with RPMI-8226; 12.1 µM (inactive) in the assay with EKVX; 13.5 µM (inactive) in the assay with SK-OV-3; 13.6 µM (inactive) in the assay on MDA-MB-231; 15.8 µM (inactive) with TK-10. The GI50 with SF-295 is 10.6 µM (inactive); in the assay on NCI-H23 it was 12.9 µM (inactive); in the assay with SK-MEL-2, 23.6 µM (inactive); in the assay on UACC-257 it was > 100 µM (inactive); in the assay with ACHN it was 14.5 µM (inactive); in the assay on Malme-3M, 55 µM (inactive). The GI50 with OVCAR-3 is 26.2 µM (inactive); with NCI-H460, 21.8 µM (inactive); in the assay with OVCAR-4, > 100 µM (inactive); with 786-0, 9.08 µM (inactive).
Regarding `COc1cc(C2c3cc4c(cc3[C@@H](Nc3ccc(F)cc3)C3CO[C@@H](O)[C@H]23)OCO4)cc(OC)c1O` (stereo partly specified), the GI50 with SK-MEL-5 is 6.18 µM (inactive); with RPMI-8226, 2.26 µM (inactive); in the assay with EKVX, 14.4 µM (inactive); in the assay with SK-OV-3, 8.65 µM (inactive); in the assay on MDA-MB-231 it was 3.48 µM (inactive); with TK-10, 12.3 µM (inactive). For the same compound, the GI50 in the assay with SF-295 was 1.24 µM (inactive); with SNB-75, 4.83 µM (inactive); with UACC-257, 20.7 µM (inactive); in the assay on ACHN it was 1.05 µM (active); in the assay on HOP-62, 5.07 µM (inactive); in the assay on NCI-H460 it was 0.169 µM (active). Also, the GI50 with OVCAR-4 was 12.2 µM (inactive); in the assay on 786-0 it was 4.61 µM (inactive).
Take `COC(=O)C[S+]([O-])c1ccccc1` (stereo unspecified): the GI50 was 25.4 µM (inactive) with SK-MEL-5; 21.9 µM (inactive) in the assay on RPMI-8226; 50.7 µM (inactive) with EKVX; 60.7 µM (inactive) in the assay with SK-OV-3; 44 µM (inactive) in the assay on TK-10; 36.6 µM (inactive) in the assay with SF-295. The GI50 in the assay on SNB-75 was > 10 µM (inactive); in the assay on NCI-H23, 35 µM (inactive); in the assay with SK-MEL-2, 35.6 µM (inactive); in the assay on HOP-92, 17.6 µM (inactive); in the assay on UACC-257, 60.4 µM (inactive); with ACHN it was 33.7 µM (inactive). The GI50 with HOP-62 was 32.6 µM (inactive); with Malme-3M it was > 100 µM (inactive); in the assay with OVCAR-3, 31.3 µM (inactive); in the assay with NCI-H460, 59.8 µM (inactive); with OVCAR-4, 41.2 µM (inactive); in the assay on 786-0, 26.7 µM (inactive).
